Counter-ions that a name gives are not always drawn.
Experiments:
JNK1 = JNK1 (Homo sapiens (Human), UniProt P45983); test: In Vitro JNK1 Assay (TR-FRET, phosphorylation of GST-c-Jun); assay type: biochemical; conditions: 0.2 nM active JNK1 kinase, 26.7 nM GST-c-Jun, 2 μM ATP, 30 min at room temperature
Procedure, shortened: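 GST-c-Jun (residues 1-79) phosphorylation by JNK1 in 50 mM HEPES pH 7.0, MgCl2, 1 mM DTT, 0.1 mM Na3VO4, 0.2 mg/mL BSA, 30 min at room temperature. Stopped with EDTA plus anti-phospho-c-Jun antibody and read by TR-FRET 1 hr later. IC50 from percent inhibition over 10 serial dilutions.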

[1] = test system: phospho(Ser63)-c-jun in HK-2 cells; test: Cell-Based Assay for JNK Inhibitors (in-cell ELISA, phospho(Ser63)-c-jun after TNFα); conditions: HK-2 cells (human proximal tubule cells), 60 minutes compound, then 10 ng/mL TNFα for 30 minutes
Method: Cell-Based Assay for JNK Inhibitors
The cell-based assay employed the in-cell ELISA method to determine the ability of compounds to prevent the generation of phospho(Ser63)-c-jun in HK-2 cells (human proximal tubule cells) in response to stimulation with tumor necrosis factor α (TNFα). In brief, for quantification of phospho(Ser63)-c-jun, the cells (in 96-well format) were fixed and permeablized then incubated sequentially with a rabbit anti-phospho-c-jun First Antibody specific for the presence of the phospho-Ser63 epitope and a donkey anti-rabbit IgG Second Antibody linked to horseradish peroxidase (HRP) for colorimetric quantitation of binding. […] Blank wells received no TNFα stimulation or compound. Additional Control wells received TNFα stimulation, but no compound.
Stock cultures of HK-2 cells (ATCC, Manassas, Va.) were grown under a 5% CO2/[…] atmosphere at 37 degrees C. in Keratinocyte-SFM medium (KSFM, Invitrogen, Grand Island, N.Y.) containing 5 μg/L epidermal growth factor and 5 mg/L bovine pituitary extract (both supplied with the medium), additionally supplemented with 10% (v/v) fetal calf serum (FCS; Invitrogen, Grand Island, N.Y.) and 1% (v/v) antibiotic-antimycotic (ABAM: Sigma, St. Louis, Mo.). For assays, cells were seeded in collagen coated 96-well polystyrene plates (BD Biosciences, Franklin Lakes, N.J.) at a density of 40,000 cells/well and cultured for 24 h in the same medium (100 μL/well) followed by a further 16-24 h in 100 μL of similar medium, but without FCS. […] Plates were then allowed to stand at room temperature for 20 minutes before being washed with 200 μL/well of PBS. (Further steps were performed immediately or the plates were stored at 4 degrees C. and the assay completed the next day.) To each well was added 100 μL 1% (v/v) TritonX-100 (Sigma, St. Louis, Mo.) in PBS followed by 20 minutes standing at room temperature, washing with 200 μL/well PBS, the addition of 100 μL/well of Quenching buffer (1% (v/v) hydrogen peroxide (Sigma, St. Louis, Mo.) and 0.1% (w/v) sodium azide (Fisher Scientific, Fair Lawn, N.J.)) in PBS and a further 20 minutes at room temperature. Plates were then washed twice with 200 μL/well of 0.1% (v/v) Tween-20 (Teknova, Hollister, Calif.) in PBS before addition of 200 μL/well of 2% BSA/0.1% Tween-20 in PBS and a further 1 hour at room temperature. […] After a further one hour, rabbit anti-phospho-c-jun-Ser63 is added directly to the solution in the Blank wells resulting in 1:250 dilution of this antibody. Plates were then placed on a slowly rotating platform at 4 degrees C. overnight. Wells were then washed thrice with 200 μL/well PBS/0.1% Tween-20. After addition of the third wash, the plates were placed on a slowly rotating platform for 15 minutes at room temperature. The final PBS/Tween20 wash was then replaced with 100 μL/well of donkey anti-rabbit HRP-labeled Second Antibody (Jackson ImmunoResearch Laboratory, West Grove, Pa.) diluted 1:10,000 in Antibody Dilution Buffer and the plates placed on a slowly rotating platform for 1 hour at room temperature. Wells were then washed four times with 200 μL/well PBS/0.1% Tween-20, including slow rotation for 30 minutes for the third wash and 10 minutes for the final wash. The wells were then washed once with 200 μL PBS without Tween-20. […] Absorbance was determined at a 450 nm wavelength using a spectrophotometer (Molecular Devices SpectraMax 250).

JNK1, sequence (P45983 whole entry, the tested form may be a part): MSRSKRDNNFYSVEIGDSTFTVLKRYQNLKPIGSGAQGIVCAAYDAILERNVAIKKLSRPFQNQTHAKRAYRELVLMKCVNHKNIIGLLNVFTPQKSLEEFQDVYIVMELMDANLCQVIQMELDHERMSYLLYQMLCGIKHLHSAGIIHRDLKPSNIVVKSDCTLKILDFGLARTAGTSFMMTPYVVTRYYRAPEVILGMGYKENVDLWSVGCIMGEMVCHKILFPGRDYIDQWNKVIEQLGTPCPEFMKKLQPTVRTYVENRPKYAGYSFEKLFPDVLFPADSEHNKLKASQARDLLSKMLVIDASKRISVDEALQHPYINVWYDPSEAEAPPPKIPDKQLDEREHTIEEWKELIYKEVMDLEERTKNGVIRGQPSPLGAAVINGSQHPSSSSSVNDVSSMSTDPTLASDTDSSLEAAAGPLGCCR

SMILES | IC50 (JNK1) | EC50 [1]
COC1CCN(c2ccc(C(=O)NCc3cn(-c4ccccc4)c4cc(Cl)ccc4c3=O)cn2)CC1 [Example I-71, 4-Methoxy-3,4,5,6-tetrahydro-2H-[1,2′]bipyridinyl-5′-carboxylic acid (7-chloro-4-oxo-1-phenyl-1,4-dihydro-quinolin-3-ylmethyl)-amide] | 26 nM | 17000 nM
COc1ccc(C(=O)NCc2cn(-c3ccccc3)c3cc(Cl)ccc3c2=O)cc1OC [Example I-57, N-(7-Chloro-4-oxo-1-phenyl-1,4-dihydro-quinolin-3-ylmethyl)-3,4-dimethoxy-benzamide] | 80 nM | 26000 nM
Cn1cc(C(=O)NCc2cn(-c3ccccc3)c3cc(Cl)ccc3c2=O)cn1 [Example I-30, 1-Methyl-1H-pyrazole-4-carboxylic acid (7-chloro-4-oxo-1-phenyl-1,4-di hydro-quinolin-3-ylmethyl)-amide] | 18 nM | 42000 nM
O=C(NCc1c(-c2ncco2)n(-c2ccccc2)c2cc(Cl)ccc2c1=O)c1ccc2c(c1)OCO2 [Example I-8, Benzo[1,3]dioxole-5-carboxylic acid (7-chloro-2-oxazol-2-yl-4-oxo-1-phenyl-1,4-dihydro-quinolin-3-ylmethyl)-amide] | 25 nM | 4200 nM
CN(C)C(=O)c1c(CNC(=O)c2cnc(N3CCC(CCO)CC3)s2)c(=O)c2ccc(Cl)cc2n1-c1ccccc1 [Example I-27, 7-Chloro-3-[4({2-[4-(2-hydroxy-ethyl)-piperidin-1-yl]-thiazole-5-carbonyl}-amino)-methyl]-4-oxo-1-phenyl-1,4-dihydro-quinoline-2-carboxylic acid dimethylamide] | 82 nM | 8000 nM
CN(C)C1CCN(c2ccc(C(=O)NCc3cn(-c4ccccc4)c4cc(Cl)ccc4c3=O)cn2)CC1 [Example I-75, 4-Dimethylamino-3,4,5,6-tetrahydro-2H-[1,2′]bipyridinyl-5′-carboxylic acid (7-chloro-4-oxo-1-phenyl-1,4-dihydro-quinolin-3-ylmethyl)-amide] | 31 nM | 14000 nM
O=C(NCc1cn(-c2ccccc2)c2cc(Cl)ccc2c1=O)c1cnc(N2CCOCC2)s1 [Example I-96, 2-Morpholin-4-yl-thiazole-5-carboxylic acid (7-chloro-4-oxo-1-phenyl-1,4-dihydro-quinolin-3-ylmethyl)-amide] | 55 nM | 100000 nM
CN(C)C(=O)c1c(CNC(=O)c2cnn(C)c2)c(=O)c2ccc(Cl)cc2n1-c1ccccc1 [Example I-23, 7-Chloro-3-{[(1-methyl-1H-pyrazole-4-carbonyl)-amino]-methyl}-4-oxo-1-phenyl-1,4-dihydro-quinoline-2-carboxylic acid dimethylamide] | 780 nM | 87000 nM
CN(CCO)c1ccc(C(=O)NCc2cn(-c3ccccc3)c3cc(Cl)ccc3c2=O)cn1 [Example I-66, N-(7-Chloro-4-oxo-1-phenyl-1,4-dihydro-quinolin-3-ylmethyl)-6-[(2-hydroxy-ethyl)-methyl-amino]-nicotinamide] | 19 nM | 29000 nM
O=C(NCc1c(-c2ncco2)n(-c2ccccc2)c2cc(Cl)ccc2c1=O)c1ccn(Cc2ccccc2)c(=O)c1 [Example I-1, 1-Benzyl-2-oxo-1,2-dihydro-pyridine-4-carboxylic acid (7-chloro-2-oxazol-2-yl-4-oxo-1-phenyl-1,4-dihydro-quinolin-3-ylmethyl)-amide] | 1 nM | 500 nM
CNC(=O)C1CCN(c2ccc(C(=O)NCc3cn(-c4ccccc4)c4cc(Cl)ccc4c3=O)cn2)CC1 [Example I-72, 3,4,5,6-Tetrahydro-2H-[1,2′]bipyridinyl-4,5′-dicarboxylic acid 5′-[(7-chloro-4-oxo-1-phenyl-1,4-dihydro-quinolin-3-ylmethyl)-amide]-4-methylamide] | 27 nM | 100000 nM
O=C(NCc1cn(-c2ccccc2)c2cc(Cl)ccc2c1=O)c1ccc(N2C[C@@H]3C[C@H]2CN3)nc1 (stereo in doubt) [Example I-89, trifluoroacetate] |  | 31000 nM

The next lines start with the values.

IC50 (JNK1) | EC50 [1] | SMILES
12 nM | 7900 nM | COC(=O)c1c(CNC(=O)c2ccncc2)c(=O)c2ccc(Cl)cc2n1-c1ccccc1 [Example I-136, 7-Chloro-4-oxo-1-phenyl-3-{[(pyridine-4-carbonyl)-amino]-methyl}-1,4-di-hydro-quinoline-2-carboxylic acid methyl ester]
4 nM | 4000 nM | COC(=O)c1c(CNC(=O)c2ccc(-c3cnco3)cc2)c(=O)c2ccc(Cl)cc2n1-c1ccccc1 [Example I-110, 7-Chloro-3-[(4-oxazol-5-yl-benzoylamino)-methyl]-4-oxo-1-phenyl-1,4-dihydro-quinoline-2-carboxylic acid methyl ester]
27 nM | 14000 nM | COC(=O)c1c(CNC(=O)c2ccc(C(N)=O)cc2)c(=O)c2ccc(C(F)(F)F)nc2n1-c1ccccc1 [Example I-155, 3-[(4-Carbamoyl-benzoylamino)-methyl]-4-oxo-1-phenyl-7-trifluoromethyl-1,4-dihydro-[1,8]naphthyridine-2-carboxylic acid methyl ester]
220 nM | 100000 nM | COC(=O)c1c(CNC(=O)C2CCN(C(C)=O)CC2)c(=O)c2ccc(Cl)cc2n1-c1ccccc1 [Example I-130, 3-{[(1-Acetyl-piperidine-4-carbonyl)-amino]-methyl}-7-chloro-4-oxo-1-phenyl-1,4-dihydro-quinoline-2-carboxylic acid methyl ester]
4 nM | 5700 nM | COC(=O)c1c(CNC(=O)c2ccc(S(C)(=O)=O)cc2)c(=O)c2ccc(Cl)cc2n1-c1ccccc1 [Example I-109, 7-chloro-3-[(4-methanesulfonyl-benzoylamino)-methyl]-4-oxo-1-phenyl-1,4-dihydroquin-oline-2-carboxylic acid methyl ester]
38 nM | 16000 nM | COC(=O)c1c(CNC(=O)c2ccc(-c3nnn(C)n3)cc2)c(=O)c2ccc(C(F)(F)F)nc2n1-c1ccccc1 [Example I-157, 3-{[4-(2-Methyl-2H-tetrazol-5-yl)-benzoylamino]-methyl}-4-oxo-1-phenyl-7-trifluoromethyl-1,4-dihydro-[1,8]-naphthyridine-2-carboxylic acid methyl ester]
12 nM | 7700 nM | COC(=O)c1c(CNC(=O)c2ccccc2)c(=O)c2ccc(Cl)cc2n1-c1ccccc1 [Example I-150, 7-Chloro-3-[(benzoylamino)-methyl]-4-oxo-1-phenyl-1,4-dihydro-quinoline-2-carboxylic acid methyl ester]
 | 12000 nM | O=C(NCc1cn(-c2ccccc2F)c2cc(F)ccc2c1=O)c1cnn(-c2ccccc2)c1 [Example I-103, 1-Phenyl-1H-pyrazole-4-carboxylic acid [7-fluoro-1-(2-fluoro-phenyl)-4-oxo-1,4-dihydro-quinolin-3-ylmethyl]-amide]
 | 2200 nM | COC(=O)c1c(CNC(=O)c2cnc(N3CCOCC3)s2)c(=O)c2ccc(Cl)cc2n1-c1ccccc1 [Example I-116, Chloro-3-{[(2-morpholin-4-yl-thiazole-5-carbonyl)-amino]-methyl}-4-oxo-1-phenyl-1,4-dihydro-quinoline-2-carboxylic acid methyl ester]
